Read-outs that look alike come from different tables or passages of the source.
Experiments:
AKT1 WT = molecular target: T1, AKT1 WT (Homo sapiens, UniProt P31749); experiment: Live cell AKT1 WT target engagement by NanoBRET competitive probe displacement in HEK293 cells; assay type: binding; conditions: 2 h at 37° C., read-out: AKT1 WT IC50
T1 construct: expressed in transfected cells; host or cells: HEK293

AKT2 = molecular target: T2, AKT2 (Homo sapiens, UniProt P31751); experiment: Live cell AKT2 target engagement by NanoBRET competitive probe displacement in HEK293 cells; assay type: binding; conditions: 2 h at 37° C., read-out: AKT2 IC50
T2 construct: expressed in transfected cells; host or cells: HEK293
T2 sequence (P31751 whole entry): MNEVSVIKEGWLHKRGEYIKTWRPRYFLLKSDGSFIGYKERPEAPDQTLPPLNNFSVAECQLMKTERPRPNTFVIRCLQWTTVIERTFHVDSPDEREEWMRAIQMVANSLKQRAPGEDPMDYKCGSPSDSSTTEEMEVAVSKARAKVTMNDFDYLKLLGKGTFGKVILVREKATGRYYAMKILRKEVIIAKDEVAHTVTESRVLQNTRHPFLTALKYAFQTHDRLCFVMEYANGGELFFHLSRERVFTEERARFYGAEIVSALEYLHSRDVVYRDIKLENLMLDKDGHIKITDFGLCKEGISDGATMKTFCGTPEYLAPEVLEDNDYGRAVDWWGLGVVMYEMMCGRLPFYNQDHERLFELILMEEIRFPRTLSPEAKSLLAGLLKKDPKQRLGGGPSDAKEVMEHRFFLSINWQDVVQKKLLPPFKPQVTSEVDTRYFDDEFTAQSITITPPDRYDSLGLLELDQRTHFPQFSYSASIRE

[1] = NanoBRET competitive probe displacement, live HEK293 cells
[2] = NanoBRET live cell target engagement, HEK293 cells

T1 sequence (P31749 whole entry): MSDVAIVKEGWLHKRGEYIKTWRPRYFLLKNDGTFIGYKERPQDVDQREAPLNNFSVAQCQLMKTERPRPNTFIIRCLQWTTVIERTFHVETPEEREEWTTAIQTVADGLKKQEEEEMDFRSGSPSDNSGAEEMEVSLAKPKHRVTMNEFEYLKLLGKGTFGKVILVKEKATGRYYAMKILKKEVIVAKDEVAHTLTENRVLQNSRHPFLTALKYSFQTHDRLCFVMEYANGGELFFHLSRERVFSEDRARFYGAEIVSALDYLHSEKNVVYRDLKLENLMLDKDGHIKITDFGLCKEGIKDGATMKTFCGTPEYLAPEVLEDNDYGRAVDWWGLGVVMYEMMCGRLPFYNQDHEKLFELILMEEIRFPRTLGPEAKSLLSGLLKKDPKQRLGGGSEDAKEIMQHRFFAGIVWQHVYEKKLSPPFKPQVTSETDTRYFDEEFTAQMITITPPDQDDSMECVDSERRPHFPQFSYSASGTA

Row | Compound | IC50 (AKT1 WT; [1]) | IC50 (AKT2; [1]) | IC50 (AKT1 WT; [2]) | IC50 (AKT2; [2])
1 | CN1CCC(n2ccc(-c3ccc4nc(-c5cccnc5N)n(-c5ccc6c(c5)CC[C@@H]6NC5CCN(C(=O)C6CC6)CC5)c4n3)n2)CC1 [Compound 570] | 47.5 nM | 679 nM |  | 
2 | Nc1ncccc1-c1nc2ccc(-c3ncco3)nc2n1-c1ccc2c(c1)CC[C@@H]2n1ccnn1 [Compound 246] |  |  | 65.5 nM | 2370 nM
3 | COc1cc(C(=O)N[C@H]2CCc3cc(-n4c(-c5cccnc5N)nc5ccc(-n6cccn6)nc54)ccc32)sn1 [Compound 429] | 5.64 nM | 57 nM |  | 
4 | Nc1ncccc1-c1nc2ccc(-n3cccn3)nc2n1-c1ccc2c(c1)CC[C@@H]2n1cc(C2COC2)nn1 [Compound 220] |  |  | 68.2 nM | 6260 nM
5 | Nc1ncccc1-c1nc2ccc(C#CC3CC3)nc2n1-c1ccc2c(c1)CC[C@@H]2NC(=O)c1ccc(F)c(F)c1 [Compound 459] | 26.6 nM | 782 nM |  | 
6 | COc1ncc(C(=O)N[C@H]2CCc3cc(-n4c(-c5cccnc5N)nc5ccc(-n6cccn6)nc54)ccc32)cc1F [Compound 162] |  |  | 9.12 nM | 37.8 nM
7 | Cc1ncccc1C(=O)N[C@H]1CCc2cc(-n3c(-c4cccnc4N)nc4c(C(F)F)cc(-n5cccn5)nc43)ccc21 [Compound 213] |  |  | 13.8 nM | 60.6 nM
8 | Nc1ncccc1-c1nc2ccc(-n3cccn3)nc2n1-c1ccc2c(c1)CC[C@@H]2NC(=O)c1ccnc(OC2COC2)c1 [Compound 164, (S)—N-(5-(2-(2-aminopyridin-3-yl)-5-(1H-pyrazol-1-yl)-3H-imidazo[4,5-b]pyridin-3-yl)-2,3-dihydro-1H-inden-1-yl)-2-(oxetan-3-yloxy)isonicotinamide] |  |  | 15.3 nM | 180 nM
9 | Nc1ncccc1-c1nc2ccc(-n3cccn3)nc2n1-c1ccc2c(c1)CC[C@@H]2NC(=O)c1nccnc1C(F)F [Compound 119] |  |  | 90.8 nM | 3160 nM
10 | Nc1ncccc1-c1nc2ccc(-n3cccn3)nc2n1-c1ccc2c(c1)CC[C@@H]2n1ccc(=O)cc1 [Compound 83, (S)-1-(5-(2-(2-aminopyridin-3-yl)-5-(1H-pyrazol-1-yl)-3H-imidazo[4,5-b]pyridin-3-yl)-2,3-dihydro-1H-inden-1-yl)pyridin-4(1H)-one] |  |  | 139 nM | 867 nM
11 | Cc1ccc(C(=O)N[C@H]2CCc3cc(-n4c(-c5cccnc5N)nc5ccc(-n6cnc(C(F)F)n6)nc54)ccc32)cn1 [Compound 430] | 83.5 nM | 2490 nM |  | 
12 | Nc1ncccc1-c1nc2ccc(-n3ccc(C4CC4)n3)nc2n1-c1ccc2c(c1)CC[C@@H]2NC1CCN(C(=O)C2CC2)CC1 [Compound 442] | 72.6 nM | 1600 nM |  | 
13 | Nc1ncccc1-c1nc2ccc(-n3cccn3)nc2n1-c1ccc2c(c1)CC[C@@H]2NC1CCC1 [Compound 88, (S)-3-(3-(1-(cyclobutylamino)-2,3-dihydro-1H-inden-5-yl)-5-(1H-pyrazol-1-yl)-3H-imidazo[4,5-b]pyridin-2-yl)pyridin-2-amine] |  |  | 155 nM | 1810 nM
14 | Nc1ncccc1-c1nc2ccc(-n3cccn3)nc2n1-c1ccc2c(c1)CC[C@@H]2n1cc(-c2ccccn2)nn1 [Compound 200] |  |  | 14.7 nM | 212 nM
15 | Cc1ncccc1C(=O)N[C@H]1CCc2cc(-n3c(-c4cccnc4N)nc4ccc(-c5ncco5)nc43)ccc21 [Compound 229] |  |  | 95.9 nM | 2850 nM
16 | Nc1ncccc1-c1nc2ccc(-n3cccn3)nc2n1-c1ccc2c(c1)CC[C@@H]2NCc1ccncc1 [Compound 142] |  |  | 43.8 nM | 886 nM
17 | Cc1ccc(C(=O)N[C@H]2CCc3cc(-n4c(-c5cccnc5N)nc5ccc(-n6cnc(C7CC7)n6)nc54)ccc32)cn1 [Compound 419] | 35.9 nM | 540 nM |  | 
18 | Nc1ncccc1-c1nc2ccc(-n3cccn3)nc2n1-c1ccc2c(c1)CC[C@@H]2NC(=O)c1ccc(Cl)cc1 [Compound 263] |  |  | 9.18 nM | 120 nM
19 | Nc1ncccc1-c1nc2ccc(-n3cccn3)nc2n1-c1ccc2c(c1)CC[C@@H]2NC(=O)c1cccc(O)c1 [Compound 307] |  |  | 10.8 nM | 123 nM
20 | Nc1ncccc1-c1nc2ccc(-n3cccn3)nc2n1-c1ccc2c(c1)CC[C@@H]2NC(=O)c1ccc2cccn2c1 [Compound 328] |  |  | 17.9 nM | 181 nM
21 | Nc1ncccc1-c1nc2ccc(-n3cccn3)nc2n1-c1ccc2c(c1)CC[C@@H]2NC1CCN(C(=O)C2CC2)CC1F (some centres unmarked) [Compound 446] | 31.9 nM | 1330 nM |  | 
22 | CN1Cc2cc(C(=O)N[C@H]3CCc4cc(-n5c(-c6cccnc6N)nc6ccc(-n7cccn7)nc65)ccc43)cnc2C1 [Compound 112] |  |  | 9.53 nM | 52.7 nM

Row | Compound | IC50 (AKT1 WT; [1]) | IC50 (AKT2; [1]) | IC50 (AKT1 WT; [2]) | IC50 (AKT2; [2])
23 | CN[C@H]1CCc2cc(-n3c(-c4cccnc4N)nc4ccc(-n5cccn5)nc43)ccc21 [Compound 339] |  |  | 126 nM | 5170 nM
24 | Nc1ncccc1-c1nc2ccc(-n3cccn3)nc2n1-c1ccc2c(c1)CC[C@@H]2NC(=O)c1cnc2[nH]ncc2c1 [Compound 192] |  |  | 9.54 nM | 86.4 nM
25 | CN(C)CC#Cc1ccc2nc(-c3cccnc3N)n(-c3ccc4c(c3)CC[C@@H]4NC(=O)c3ccc(C(F)F)nc3)c2n1 [Compound 407] | 421 nM | 3550 nM |  | 
26 | Cc1ncccc1C(=O)N[C@H]1CCc2cc(-n3c(-c4cccnc4N)nc4c(C)cc(-n5cccn5)nc43)ccc21 [Compound 100] |  |  | 17.2 nM | 24.9 nM
27 | Nc1ncccc1-c1nc2ccc(-n3ccc(N4CCC4)n3)nc2n1-c1ccc2c(c1)CC[C@@H]2NC1CCN(C(=O)C2CC2)CC1 [Compound 562] | 9.77 nM | 430 nM |  | 
28 | Nc1ncccc1-c1nc2ccc(-n3cccn3)nc2n1-c1ccc2c(c1)CC[C@@H]2NC(=O)c1ccn2nccc2n1 [Compound 306] |  |  | 34.5 nM | 132 nM
29 | Nc1ncccc1-c1nc2ccc(-n3cccn3)nc2n1-c1ccc2c(c1)CC[C@@H]2NC1CCN(C(=O)[C@@H]2CCO2)CC1 [Compound 424] | 122 nM | 5380 nM |  | 
30 | Cc1ncc(C(=O)N[C@H]2CCc3cc(-n4c(-c5cccnc5N)nc5ccc(-n6cccn6)nc54)ccc32)c(C)n1 [Compound 96] |  |  | 18.6 nM | 94.7 nM
31 | Nc1ncccc1-c1nc2ccc(-n3cccn3)nc2n1-c1ccc2c(c1)CC[C@@H]2NC(=O)c1cnc2c(c1)CC(=O)N2 [Compound 224] |  |  | 32.1 nM | 342 nM
32 | Nc1ncccc1-c1nc2ccc(-n3cccn3)nc2n1-c1ccc2c(c1)CC[C@@H]2NC1COC1 [Compound 111] |  |  | 178 nM | 4500 nM
33 | Cn1ccc(C#Cc2cc(C(=O)N[C@H]3CCc4cc(-n5c(-c6cccnc6N)nc6ccc(-n7cccn7)nc65)ccc43)ccn2)n1 [Compound 182] |  |  | 11.5 nM | 219 nM
34 | CN1CC(C#Cc2ccc3nc(-c4cccnc4N)n(-c4ccc5c(c4)CC[C@@H]5NC(=O)c4ccc(C(F)F)nc4)c3n2)C1 [Compound 411, (S)—N-(5-(2-(2-aminopyridin-3-yl)-5-((1-methylazetidin-3-yl)ethynyl)-3H-imidazo[4,5-b]pyridin-3-yl)-2,3-dihydro-1H-inden-1-yl)-6-(difluoromethyl)nicotinamide] | 976 nM | > 10000 nM |  | 
35 | Nc1ncccc1-c1nc2ccc(-n3cccn3)nc2n1-c1ccc2c(c1)CC[C@@H]2NC(=O)c1ccnn1C(F)F [Compound 170] |  |  | 69.6 nM | 1380 nM
36 | Nc1ncccc1-c1nc2ccc(-n3cccn3)nc2n1-c1ccc2c(c1)CC[C@@H]2NC1CCN(C(=O)[C@H]2C[C@@H]2F)CC1 [Compound 479] | 89.3 nM | > 10000 nM |  | 
37 | COc1ccn(-c2ccc3nc(-c4cccnc4N)n(-c4ccc5c(c4)CC[C@@H]5NC4CCN(C(=O)C5CC5)CC4F)c3n2)n1 (some centres unmarked) [Compound 512] | 19.7 nM | 409 nM |  | 
38 | Nc1ncccc1-c1nc2ccc(-n3cccn3)nc2n1-c1ccc2c(c1)CC[C@@H]2NC1CCN(C(=O)[C@H]2CC2(F)F)CC1 [Compound 476] | 209 nM | > 10000 nM |  | 
39 | Nc1ncccc1-c1nc2ccc(-n3cccn3)nc2n1-c1ccc2c(c1)CC[C@@H]2NC1CCCc2ccncc21 (some centres unmarked) [Compound 502] | 134 nM | 2090 nM |  | 
40 | Cc1ncc(C(=O)N[C@H]2CCc3cc(-n4c(-c5cccnc5N)nc5ccc(-n6nccn6)nc54)ccc32)s1 [Compound 492] | 24.1 nM | 2120 nM |  | 
41 | Cc1cc(C(F)F)ncc1C(=O)N[C@H]1CCc2cc(-n3c(-c4cccnc4N)nc4ccc(-n5nccn5)nc43)ccc21 [Compound 397] | 16.5 nM | 1440 nM |  | 
42 | N#Cc1cc(C(=O)N[C@H]2CCc3cc(-n4c(-c5cccnc5N)nc5ccc(-n6cccn6)nc54)ccc32)ccc1O [Compound 259] |  |  | 204 nM | 1210 nM
43 | CC(=O)Nc1ccc(C(=O)N[C@H]2CCc3cc(-n4c(-c5cccnc5N)nc5ccc(-n6cccn6)nc54)ccc32)cc1 [Compound 196] |  |  | 9.31 nM | 72.4 nM

Reference: patent US12624034B2, “Non-covalent modifiers of AKT1 and uses thereof” (Terremoto Biosciences, Inc., priority 2023, dated 2026)
